Key:
[1] = target: Mitogen-activated protein kinase 14 (Homo sapiens, UniProt Q16539); set-up: species or system Escherichia coli;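 further: inhibition of p38alpha enzyme activity in a biochemical kinase assay, with myelin basic protein serving as substrate; in other assays of this panel Not Active means under 50% inhibition at 10 µM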
[2] = target: Prostaglandin G/H synthase 1 (Homo sapiens, UniProt P23219); experiment: biochemical; type: tissue-based, Platelet;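 further: inhibition of COX-1 enzyme activity, with arachidonic acid supplied as substrate; in other assays of this panel Not Active means under 50% inhibition at 10 µM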
Prostaglandin G/H synthase 1, sequence (P23219 whole entry): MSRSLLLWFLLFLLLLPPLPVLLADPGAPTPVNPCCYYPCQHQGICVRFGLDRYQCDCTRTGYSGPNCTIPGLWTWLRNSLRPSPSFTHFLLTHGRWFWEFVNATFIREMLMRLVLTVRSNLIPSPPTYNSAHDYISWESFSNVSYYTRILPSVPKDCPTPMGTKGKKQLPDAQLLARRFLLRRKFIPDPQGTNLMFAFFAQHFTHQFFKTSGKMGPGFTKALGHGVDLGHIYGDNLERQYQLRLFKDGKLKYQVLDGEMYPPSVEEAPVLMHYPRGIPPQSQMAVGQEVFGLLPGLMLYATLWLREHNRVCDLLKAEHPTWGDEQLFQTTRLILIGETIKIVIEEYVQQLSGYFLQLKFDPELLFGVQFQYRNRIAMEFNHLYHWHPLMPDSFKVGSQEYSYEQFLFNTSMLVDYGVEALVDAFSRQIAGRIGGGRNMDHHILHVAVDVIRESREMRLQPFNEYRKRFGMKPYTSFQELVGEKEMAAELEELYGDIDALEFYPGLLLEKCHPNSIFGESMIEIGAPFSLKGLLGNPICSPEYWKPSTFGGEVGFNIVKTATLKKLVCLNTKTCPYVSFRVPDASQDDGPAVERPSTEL

[3] = target: Vascular endothelial growth factor receptor 1 (Homo sapiens, UniProt P17948); experiment: biochemical; type: cell-based, HUVEC; further: in other assays of this panel Not Active means under 50% inhibition at 10 µM
Vascular endothelial growth factor receptor 1, sequence (P17948 whole entry): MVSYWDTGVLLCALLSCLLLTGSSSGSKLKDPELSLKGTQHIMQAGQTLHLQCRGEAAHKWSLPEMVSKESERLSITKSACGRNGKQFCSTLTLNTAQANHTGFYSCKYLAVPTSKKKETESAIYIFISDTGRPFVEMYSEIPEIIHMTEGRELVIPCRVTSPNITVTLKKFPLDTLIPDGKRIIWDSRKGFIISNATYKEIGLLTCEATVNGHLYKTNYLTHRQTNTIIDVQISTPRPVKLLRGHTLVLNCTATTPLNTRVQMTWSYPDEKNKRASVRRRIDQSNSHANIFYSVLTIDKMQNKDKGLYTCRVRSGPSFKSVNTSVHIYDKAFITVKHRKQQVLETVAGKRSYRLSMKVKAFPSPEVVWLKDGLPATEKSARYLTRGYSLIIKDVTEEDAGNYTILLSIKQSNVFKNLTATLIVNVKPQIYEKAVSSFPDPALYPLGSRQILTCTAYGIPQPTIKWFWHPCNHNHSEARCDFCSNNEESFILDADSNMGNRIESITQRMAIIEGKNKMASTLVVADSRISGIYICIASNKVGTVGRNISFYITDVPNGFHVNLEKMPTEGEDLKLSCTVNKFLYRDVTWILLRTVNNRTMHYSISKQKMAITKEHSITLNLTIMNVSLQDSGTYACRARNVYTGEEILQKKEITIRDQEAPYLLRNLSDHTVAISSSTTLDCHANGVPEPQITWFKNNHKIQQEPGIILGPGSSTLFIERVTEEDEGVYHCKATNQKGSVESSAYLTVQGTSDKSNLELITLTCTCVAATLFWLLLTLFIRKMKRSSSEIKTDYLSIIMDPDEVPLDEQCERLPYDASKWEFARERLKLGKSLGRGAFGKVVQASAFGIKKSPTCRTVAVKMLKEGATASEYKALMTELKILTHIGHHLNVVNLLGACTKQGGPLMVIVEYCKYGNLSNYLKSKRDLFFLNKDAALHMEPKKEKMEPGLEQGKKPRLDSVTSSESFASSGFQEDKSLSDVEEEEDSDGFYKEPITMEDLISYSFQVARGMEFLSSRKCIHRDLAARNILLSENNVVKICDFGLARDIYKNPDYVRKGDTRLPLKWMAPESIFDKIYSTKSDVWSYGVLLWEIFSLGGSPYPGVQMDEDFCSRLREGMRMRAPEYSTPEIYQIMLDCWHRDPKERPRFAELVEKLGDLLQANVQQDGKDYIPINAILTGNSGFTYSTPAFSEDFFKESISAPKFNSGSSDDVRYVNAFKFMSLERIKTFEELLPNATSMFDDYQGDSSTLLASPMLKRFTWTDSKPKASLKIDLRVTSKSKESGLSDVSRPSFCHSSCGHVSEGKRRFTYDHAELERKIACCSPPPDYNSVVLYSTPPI

[4] = target: T1, Amine oxidase [flavin-containing] A (Homo sapiens, UniProt P21397); experiment: DRUGMATRIX: Monoamine Oxidase MAO-A enzyme inhibition (substrate: Kynuramine); set-up: species or system BTI-TN-5B1-4; settings: Not Active = under 50% inhibition at 10 µM
T1 sequence (P21397 whole entry): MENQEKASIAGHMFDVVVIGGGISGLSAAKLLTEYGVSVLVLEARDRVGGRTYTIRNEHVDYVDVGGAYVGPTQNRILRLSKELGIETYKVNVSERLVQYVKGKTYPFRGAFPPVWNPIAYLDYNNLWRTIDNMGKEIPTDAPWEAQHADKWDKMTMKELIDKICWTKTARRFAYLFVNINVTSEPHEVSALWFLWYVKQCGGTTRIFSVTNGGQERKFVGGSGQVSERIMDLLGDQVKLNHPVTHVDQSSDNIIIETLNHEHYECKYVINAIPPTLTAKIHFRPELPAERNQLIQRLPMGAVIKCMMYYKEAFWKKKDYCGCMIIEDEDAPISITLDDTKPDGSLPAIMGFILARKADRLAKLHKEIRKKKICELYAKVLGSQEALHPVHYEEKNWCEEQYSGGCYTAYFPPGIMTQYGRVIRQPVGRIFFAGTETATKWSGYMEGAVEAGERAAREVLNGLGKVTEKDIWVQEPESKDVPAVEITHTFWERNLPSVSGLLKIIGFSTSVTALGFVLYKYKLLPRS

[5] = target: T2, Nitric oxide synthase, inducible (Mus musculus, UniProt P29477); set-up: species or system Escherichia coli;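 further: inhibition of iNOS enzyme activity measured with L-arginine as substrate; in other assays of this panel Not Active means under 50% inhibition at 10 µM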
T2 sequence (P29477 whole entry): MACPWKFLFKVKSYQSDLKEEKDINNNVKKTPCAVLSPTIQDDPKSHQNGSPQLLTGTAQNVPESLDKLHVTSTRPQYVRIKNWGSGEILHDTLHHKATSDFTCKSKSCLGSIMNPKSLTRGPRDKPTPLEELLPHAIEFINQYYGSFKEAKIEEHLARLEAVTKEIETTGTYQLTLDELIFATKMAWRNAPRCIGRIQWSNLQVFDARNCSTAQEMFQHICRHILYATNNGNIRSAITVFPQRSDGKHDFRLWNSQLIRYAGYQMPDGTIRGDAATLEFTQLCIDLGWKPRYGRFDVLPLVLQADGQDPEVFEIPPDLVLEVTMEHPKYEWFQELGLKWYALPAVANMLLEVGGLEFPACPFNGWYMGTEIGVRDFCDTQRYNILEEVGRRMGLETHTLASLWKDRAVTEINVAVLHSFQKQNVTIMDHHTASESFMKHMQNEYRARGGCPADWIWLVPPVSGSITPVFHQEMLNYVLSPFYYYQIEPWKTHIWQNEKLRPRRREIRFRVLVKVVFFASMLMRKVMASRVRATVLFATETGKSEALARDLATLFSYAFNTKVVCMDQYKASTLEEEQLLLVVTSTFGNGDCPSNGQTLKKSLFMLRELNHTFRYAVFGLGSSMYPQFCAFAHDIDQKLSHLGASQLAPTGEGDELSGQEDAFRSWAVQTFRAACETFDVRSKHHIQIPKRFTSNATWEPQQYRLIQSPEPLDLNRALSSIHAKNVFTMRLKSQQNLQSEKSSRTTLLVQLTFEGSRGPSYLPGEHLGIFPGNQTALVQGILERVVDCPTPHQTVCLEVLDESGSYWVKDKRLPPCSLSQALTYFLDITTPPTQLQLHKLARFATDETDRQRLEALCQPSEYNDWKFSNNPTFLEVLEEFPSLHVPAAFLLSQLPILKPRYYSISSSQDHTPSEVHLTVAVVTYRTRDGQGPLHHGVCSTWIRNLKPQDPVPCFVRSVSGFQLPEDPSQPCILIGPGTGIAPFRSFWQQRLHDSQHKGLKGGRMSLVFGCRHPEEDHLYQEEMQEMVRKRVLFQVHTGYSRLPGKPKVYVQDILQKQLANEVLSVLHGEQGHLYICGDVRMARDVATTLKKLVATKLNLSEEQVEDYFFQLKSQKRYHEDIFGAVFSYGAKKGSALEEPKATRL

[6] = DRUGMATRIX: Glutamate, Kainate radioligand binding (ligand: [3H] Kainic acid); type: cell membranes, Rattus norvegicus, Wistar, Brain, Membrane; settings: Not Active = under 50% inhibition at 10 µM
[7] = target: Mitogen-activated protein kinase 1 (Homo sapiens, UniProt P28482); experiment: DRUGMATRIX: Protein Serine/Threonine Kinase, ERK2 enzyme inhibition (substrate: Myelin Basic Protein); set-up: species or system Escherichia coli; settings: Not Active = under 50% inhibition at 10 µM
Mitogen-activated protein kinase 1, sequence (P28482 whole entry): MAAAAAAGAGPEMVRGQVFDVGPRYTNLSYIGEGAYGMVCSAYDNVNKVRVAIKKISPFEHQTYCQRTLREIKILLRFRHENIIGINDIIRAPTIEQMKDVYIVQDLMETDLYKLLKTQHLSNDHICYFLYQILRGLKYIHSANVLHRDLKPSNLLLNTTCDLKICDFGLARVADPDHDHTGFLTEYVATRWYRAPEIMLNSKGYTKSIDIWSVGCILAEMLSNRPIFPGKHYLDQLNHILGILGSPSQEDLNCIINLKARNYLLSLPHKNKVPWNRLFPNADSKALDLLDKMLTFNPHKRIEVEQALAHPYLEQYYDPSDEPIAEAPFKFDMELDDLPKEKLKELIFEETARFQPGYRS

Mitogen-activated protein kinase 14, sequence (Q16539 whole entry): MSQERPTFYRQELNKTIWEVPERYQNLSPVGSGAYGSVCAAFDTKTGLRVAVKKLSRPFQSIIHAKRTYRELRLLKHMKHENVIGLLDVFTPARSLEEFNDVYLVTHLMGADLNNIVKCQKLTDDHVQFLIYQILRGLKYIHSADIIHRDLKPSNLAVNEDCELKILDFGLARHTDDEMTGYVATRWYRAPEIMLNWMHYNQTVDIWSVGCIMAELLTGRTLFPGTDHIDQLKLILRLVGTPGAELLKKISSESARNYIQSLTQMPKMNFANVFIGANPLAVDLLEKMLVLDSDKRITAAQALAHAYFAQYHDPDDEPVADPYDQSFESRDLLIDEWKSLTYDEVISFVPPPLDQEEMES

COC(=O)c1ccccc1O [METHYL SALICYLATE]
Not Active: IC50 [1] | IC50 ([2]; platelet) | IC50 ([3]; huvec) | IC50 ([4]; bti-tn-5b1-4) | IC50 [5] | IC50 [6] | Ki [6] | IC50 [7]

CC[C@H](C)C(=O)O[C@H]1C[C@H](O)C=C2C=C[C@H](C)[C@H](CC[C@@H](O)C[C@@H](O)CC(=O)O)[C@H]21 [PRAVASTATIN]
Not Active: IC50 [1] | IC50 ([2]; platelet) | IC50 ([3]; huvec) | IC50 ([4]; bti-tn-5b1-4) | IC50 [5] | IC50 [6] | Ki [6] | IC50 [7]

N[C@@H](Cc1ccc(F)cc1)C(=O)O
Not Active: IC50 [1] | IC50 ([2]; platelet) | IC50 ([3]; huvec) | IC50 ([4]; bti-tn-5b1-4) | IC50 [5] | IC50 [6] | Ki [6] | IC50 [7]

C[C@]12C/C(=C/O)C(=O)C[C@@H]1CC[C@@H]1[C@@H]2CC[C@@]2(C)[C@H]1CC[C@]2(C)O [OXYMETHOLONE]
Not Active: IC50 [1] | IC50 ([2]; platelet) | IC50 ([3]; huvec) | IC50 ([4]; bti-tn-5b1-4) | IC50 [5] | IC50 [6] | Ki [6] | IC50 [7]

Clc1cc2c(cc1Cl)Oc1cc(Cl)c(Cl)cc1O2 [2,3,7,8-TETRACHLORODIBENZO-P-DIOXIN]
2.69 nM: IC50 ([3]; read-out: IC50)
Not Active: IC50 [1] | IC50 ([2]; platelet) | IC50 ([4]; bti-tn-5b1-4) | IC50 [5] | IC50 [6] | Ki [6] | IC50 [7]
0.697 nM: Ki ([3]; read-out: Ki)

OCCO [ETHYLENE GLYCOL]
Not Active: IC50 [1] | IC50 ([2]; platelet) | IC50 ([3]; huvec) | IC50 ([4]; bti-tn-5b1-4) | IC50 [5] | IC50 [6] | Ki [6] | IC50 [7]

NC[C@H]1O[C@H](O[C@H]2[C@H](O)[C@@H](O[C@H]3O[C@H](CO)[C@@H](O)[C@H](N)[C@H]3O)[C@H](N)C[C@@H]2N)[C@H](O)[C@@H](O)[C@@H]1O [KANAMYCIN]
Not Active: IC50 [1] | IC50 ([2]; platelet) | IC50 ([3]; huvec) | IC50 ([4]; bti-tn-5b1-4) | IC50 [5] | IC50 [6] | Ki [6] | IC50 [7]

O=C(/C=C/c1ccc(O)c(O)c1)OCCc1ccccc1 [CAFFEIC ACID PHENETHYL ESTER]
Not Active: IC50 [1] | IC50 ([3]; huvec) | IC50 ([4]; bti-tn-5b1-4) | IC50 [5] | IC50 [6] | Ki [6]
833 nM: IC50 ([2]; read-out: IC50)
686 nM: IC50 ([7]; read-out: IC50)

NC[C@@H]1O[C@H](O[C@H]2[C@@H](O)[C@H](O[C@@H]3[C@@H](O)[C@H](N)C[C@H](N)[C@H]3O[C@H]3O[C@H](CN)[C@@H](O)[C@H](O)[C@H]3N)O[C@@H]2CO)[C@H](N)[C@@H](O)[C@@H]1O [FRAMYCETIN]
Not Active: IC50 [1] | IC50 ([2]; platelet) | IC50 ([3]; huvec) | IC50 ([4]; bti-tn-5b1-4) | IC50 [5] | IC50 [6] | Ki [6] | IC50 [7]

CCCCCC[C@H]1C(=O)O[C@H](C)[C@H](NC(=O)c2cccc(NC=O)c2O)C(=O)O[C@@H](C)[C@@H]1OC(=O)CC(C)C [ANTIMYCIN A]
Not Active: IC50 [1] | IC50 ([2]; platelet) | IC50 ([3]; huvec) | IC50 ([4]; bti-tn-5b1-4) | IC50 [5] | IC50 [6] | Ki [6]
2120 nM: IC50 ([7]; read-out: IC50)

Oc1ccccc1O [CATECHOL]
Not Active: IC50 [1] | IC50 ([2]; platelet) | IC50 ([3]; huvec) | IC50 ([4]; bti-tn-5b1-4) | IC50 [5] | IC50 [6] | Ki [6] | IC50 [7]

Cc1c(F)c(N2CCNC(C)C2)cc2c1c(=O)c(C(=O)O)cn2C1CC1 (stereo not given) [GREPAFLOXACIN]
Not Active: IC50 [1] | IC50 ([2]; platelet) | IC50 ([3]; huvec) | IC50 ([4]; bti-tn-5b1-4) | IC50 [5] | IC50 [6] | Ki [6] | IC50 [7]

[N-]=[N+]=CC(=O)OC[C@H](N)C(=O)O [AZASERINE]
Not Active: IC50 [1] | IC50 ([2]; platelet) | IC50 ([3]; huvec) | IC50 ([4]; bti-tn-5b1-4) | IC50 [5] | IC50 [6] | Ki [6] | IC50 [7]

C#C[C@]1(O)CC[C@H]2[C@@H]3CCC4=Cc5oncc5C[C@]4(C)[C@H]3CC[C@@]21C [DANAZOL]
Not Active: IC50 [1] | IC50 ([2]; platelet) | IC50 ([3]; huvec) | IC50 ([4]; bti-tn-5b1-4) | IC50 [5] | IC50 [6] | Ki [6] | IC50 [7]

CO[C@H]1[C@@H](O)[C@H](N)[C@@H](O[C@H]2O[C@H]([C@H](C)N)CC[C@H]2N)[C@H](O)[C@@H]1N(C)C(=O)CN [ASTROMICIN]
Not Active: IC50 [1] | IC50 ([2]; platelet) | IC50 ([3]; huvec) | IC50 ([4]; bti-tn-5b1-4) | IC50 [5] | IC50 [6] | Ki [6] | IC50 [7]

N=C(N)N/N=C/c1c(Cl)cccc1Cl [GUANABENZ]
1790 nM: IC50 ([4]; read-out: IC50)
Not Active: IC50 [1] | IC50 ([2]; platelet) | IC50 ([3]; huvec) | IC50 [5] | IC50 [6] | Ki [6] | IC50 [7]

NC(=O)N1c2ccccc2C=Cc2ccccc21 [CARBAMAZEPINE]
Not Active: IC50 [1] | IC50 ([2]; platelet) | IC50 ([3]; huvec) | IC50 ([4]; bti-tn-5b1-4) | IC50 [5] | IC50 [6] | Ki [6] | IC50 [7]

OCCN1CCN(CCCN2c3ccccc3Sc3ccc(Cl)cc32)CC1 [PERPHENAZINE]
Not Active: IC50 [1] | IC50 ([2]; platelet) | IC50 ([3]; huvec) | IC50 ([4]; bti-tn-5b1-4) | IC50 [5] | IC50 [6] | Ki [6] | IC50 [7]

CC[C@]1(O)CC[C@H]2[C@@H]3CCC4=CCCC[C@@H]4[C@H]3CC[C@@]21C
Not Active: IC50 [1] | IC50 ([2]; platelet) | IC50 ([3]; huvec) | IC50 ([4]; bti-tn-5b1-4) | IC50 [5] | IC50 [6] | Ki [6] | IC50 [7]

CCOC(=O)n1ccn(C)c1=S [CARBIMAZOLE]
Not Active: IC50 [1] | IC50 ([2]; platelet) | IC50 ([3]; huvec) | IC50 ([4]; bti-tn-5b1-4) | IC50 [5] | IC50 [6] | Ki [6] | IC50 [7]

COc1ccc(Cc2nccc3cc(OC)c(OC)cc23)cc1OC [PAPAVERINE]
Not Active: IC50 [1] | IC50 ([2]; platelet) | IC50 ([3]; huvec) | IC50 ([4]; bti-tn-5b1-4) | IC50 [5] | IC50 [6] | Ki [6] | IC50 [7]

C#C[C@]1(O)CC[C@H]2[C@@H]3CCc4cc(O)ccc4[C@H]3CC[C@@]21C [ETHINYL ESTRADIOL]
Not Active: IC50 [1] | IC50 ([2]; platelet) | IC50 ([3]; huvec) | IC50 ([4]; bti-tn-5b1-4) | IC50 [5] | IC50 [6] | Ki [6] | IC50 [7]

C[C@H]([C@](O)(Cn1cncn1)c1ccc(F)cc1F)S(C)(=O)=O [GENACONAZOLE]
Not Active: IC50 [1] | IC50 ([2]; platelet) | IC50 ([3]; huvec) | IC50 ([4]; bti-tn-5b1-4) | IC50 [5] | IC50 [6] | Ki [6] | IC50 [7]
